Consider 9 molecules from US12227500B2, “Substituted pyrrolo[2,3-b]pyridines for suppressing toxic endoplasmic reticulum stress” (THE TRUSTEES OF COLUMBIA UNIVERSITY IN THE CITY OF NEW YORK, priority 2018, dated 2025).

The structures appear in SMILES notation. Where two headings read alike, the source gives them in different places.

Common to all, as to assay: Radiolabeled ATP kinase assay, panel of 60 kinases (Table S5)
What all share (type): biochemical

For assay [1], the target named is T1, panel of 60 human kinases (Homo sapiens, UniProt O14965).
T1 construct: purchased Reaction Biology Corp
T1 sequence (O14965 1-403): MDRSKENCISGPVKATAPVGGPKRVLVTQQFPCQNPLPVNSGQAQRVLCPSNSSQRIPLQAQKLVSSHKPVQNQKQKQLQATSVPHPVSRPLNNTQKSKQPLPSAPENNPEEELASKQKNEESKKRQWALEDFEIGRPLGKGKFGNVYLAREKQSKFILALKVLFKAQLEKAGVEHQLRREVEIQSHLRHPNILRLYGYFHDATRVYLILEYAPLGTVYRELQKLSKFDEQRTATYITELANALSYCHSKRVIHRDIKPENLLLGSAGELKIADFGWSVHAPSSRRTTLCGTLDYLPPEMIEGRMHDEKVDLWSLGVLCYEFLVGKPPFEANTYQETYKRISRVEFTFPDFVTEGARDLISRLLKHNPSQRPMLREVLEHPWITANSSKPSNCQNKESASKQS
The following applies: Aurora A; 0.1 μM; 10 μM ATP; read-out: % Enzyme Activity (relative to DSMO controls). A digest of the protocol:
(§1)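 Compounds at two concentrations, 0.1 μM and 0.5 μM, were screened for inhibition of 60 kinases in cell-free assays read out by radiolabeled ATP.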

Assay [2] deals with T2, panel of 60 human kinases (Homo sapiens, UniProt Q13164).
T2 construct: purchased Reaction Biology Corp
The following applies: 0.1 μM, 10 μM ATP, read-out: % Enzyme Activity (relative to DSMO controls). Put shortly:
as §1

Assay [3] deals with T3, panel of 60 human kinases (Homo sapiens, UniProt Q92630).
T3 construct: purchased Reaction Biology Corp
T3 sequence (Q92630 1-601): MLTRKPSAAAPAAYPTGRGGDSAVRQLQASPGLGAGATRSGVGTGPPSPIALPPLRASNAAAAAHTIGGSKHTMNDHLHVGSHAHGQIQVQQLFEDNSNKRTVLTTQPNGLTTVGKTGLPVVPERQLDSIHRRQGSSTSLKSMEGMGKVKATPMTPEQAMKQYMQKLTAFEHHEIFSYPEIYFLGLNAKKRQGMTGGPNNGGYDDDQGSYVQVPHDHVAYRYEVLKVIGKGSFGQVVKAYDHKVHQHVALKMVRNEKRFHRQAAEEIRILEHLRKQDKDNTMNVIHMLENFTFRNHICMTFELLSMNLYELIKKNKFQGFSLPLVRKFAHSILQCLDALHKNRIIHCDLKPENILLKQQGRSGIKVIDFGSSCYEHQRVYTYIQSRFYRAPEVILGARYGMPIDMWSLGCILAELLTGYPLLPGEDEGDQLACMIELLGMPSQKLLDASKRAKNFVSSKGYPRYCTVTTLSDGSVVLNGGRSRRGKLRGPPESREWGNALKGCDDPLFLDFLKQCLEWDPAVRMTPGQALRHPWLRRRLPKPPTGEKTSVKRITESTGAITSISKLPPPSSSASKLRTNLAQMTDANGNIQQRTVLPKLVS
Particulars: DYRK2; 0.1 μM; 10 μM ATP; read-out: % Enzyme Activity (relative to DSMO controls). Put shortly:
as §1

The target of assay [4] is T4, panel of 60 human kinases (Homo sapiens, UniProt Q92918).
T4 construct: purchased Reaction Biology Corp
Particulars: HPK1/MAP4K1; 0.1 μM; 10 μM ATP; read-out: % Enzyme Activity (relative to DSMO controls). A digest of the protocol:
as §1

In assay [5] the target is T5, panel of 60 human kinases (Homo sapiens, UniProt Q99683).
T5 construct: purchased Reaction Biology Corp
T5 sequence (Q99683 1-1374): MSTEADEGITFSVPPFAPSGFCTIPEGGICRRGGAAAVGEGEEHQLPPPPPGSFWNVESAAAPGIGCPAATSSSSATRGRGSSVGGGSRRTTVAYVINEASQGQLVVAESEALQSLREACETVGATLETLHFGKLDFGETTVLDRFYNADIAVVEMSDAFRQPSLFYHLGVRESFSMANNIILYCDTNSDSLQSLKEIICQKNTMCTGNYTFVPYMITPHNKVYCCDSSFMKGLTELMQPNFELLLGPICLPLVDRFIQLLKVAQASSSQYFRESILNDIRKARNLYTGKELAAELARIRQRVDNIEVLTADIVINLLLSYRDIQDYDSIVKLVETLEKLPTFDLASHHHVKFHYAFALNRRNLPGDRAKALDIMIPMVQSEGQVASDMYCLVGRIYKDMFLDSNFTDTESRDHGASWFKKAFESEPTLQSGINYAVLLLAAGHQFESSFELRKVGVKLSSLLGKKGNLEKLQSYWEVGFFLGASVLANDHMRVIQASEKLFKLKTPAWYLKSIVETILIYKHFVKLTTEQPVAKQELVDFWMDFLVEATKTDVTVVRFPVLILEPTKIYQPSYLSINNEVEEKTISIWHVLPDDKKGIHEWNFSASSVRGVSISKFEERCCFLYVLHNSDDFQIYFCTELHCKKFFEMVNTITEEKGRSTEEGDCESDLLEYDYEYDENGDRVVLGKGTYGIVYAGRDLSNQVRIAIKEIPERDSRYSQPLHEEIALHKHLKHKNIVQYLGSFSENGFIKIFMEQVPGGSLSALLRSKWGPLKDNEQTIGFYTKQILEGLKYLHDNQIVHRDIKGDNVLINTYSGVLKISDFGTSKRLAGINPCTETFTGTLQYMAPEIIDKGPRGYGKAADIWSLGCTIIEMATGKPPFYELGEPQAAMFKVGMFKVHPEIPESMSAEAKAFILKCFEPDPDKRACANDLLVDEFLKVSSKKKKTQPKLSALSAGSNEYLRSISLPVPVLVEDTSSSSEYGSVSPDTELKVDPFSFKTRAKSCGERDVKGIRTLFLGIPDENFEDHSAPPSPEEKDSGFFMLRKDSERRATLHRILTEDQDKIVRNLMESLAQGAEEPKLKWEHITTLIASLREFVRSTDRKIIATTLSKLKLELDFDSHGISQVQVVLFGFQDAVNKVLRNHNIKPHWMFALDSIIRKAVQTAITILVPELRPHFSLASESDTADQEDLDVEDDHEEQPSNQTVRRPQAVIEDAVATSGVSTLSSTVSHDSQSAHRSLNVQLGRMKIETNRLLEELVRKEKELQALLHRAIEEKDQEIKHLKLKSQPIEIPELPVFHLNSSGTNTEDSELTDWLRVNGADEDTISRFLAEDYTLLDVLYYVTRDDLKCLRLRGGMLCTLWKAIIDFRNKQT
The following applies: ASK1/MAP3K5; 0.1 μM; 10 μM ATP; read-out: % Enzyme Activity (relative to DSMO controls). A digest of the protocol:
as §1

T4 sequence (Q92918 whole entry): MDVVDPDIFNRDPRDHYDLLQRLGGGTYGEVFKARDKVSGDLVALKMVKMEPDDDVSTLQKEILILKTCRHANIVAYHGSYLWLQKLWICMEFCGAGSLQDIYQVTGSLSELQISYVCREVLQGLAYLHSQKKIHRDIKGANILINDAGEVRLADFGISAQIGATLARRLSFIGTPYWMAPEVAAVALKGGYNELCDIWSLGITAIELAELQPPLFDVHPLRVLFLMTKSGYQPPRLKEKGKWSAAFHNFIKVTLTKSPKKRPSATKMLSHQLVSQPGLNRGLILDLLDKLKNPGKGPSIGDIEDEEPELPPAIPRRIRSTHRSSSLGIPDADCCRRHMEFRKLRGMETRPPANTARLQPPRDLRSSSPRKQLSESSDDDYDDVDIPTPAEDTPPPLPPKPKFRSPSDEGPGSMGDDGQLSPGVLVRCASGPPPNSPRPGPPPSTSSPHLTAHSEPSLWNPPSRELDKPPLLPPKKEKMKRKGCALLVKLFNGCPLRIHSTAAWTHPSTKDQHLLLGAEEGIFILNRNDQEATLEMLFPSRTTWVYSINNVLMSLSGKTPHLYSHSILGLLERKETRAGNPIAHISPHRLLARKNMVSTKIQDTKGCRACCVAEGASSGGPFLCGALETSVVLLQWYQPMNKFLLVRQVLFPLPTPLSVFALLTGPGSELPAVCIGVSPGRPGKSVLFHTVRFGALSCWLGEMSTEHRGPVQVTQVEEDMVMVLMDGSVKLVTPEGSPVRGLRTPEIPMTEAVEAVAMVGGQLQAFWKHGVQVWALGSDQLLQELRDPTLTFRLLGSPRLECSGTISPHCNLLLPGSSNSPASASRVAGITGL
T2 sequence (Q13164 whole entry): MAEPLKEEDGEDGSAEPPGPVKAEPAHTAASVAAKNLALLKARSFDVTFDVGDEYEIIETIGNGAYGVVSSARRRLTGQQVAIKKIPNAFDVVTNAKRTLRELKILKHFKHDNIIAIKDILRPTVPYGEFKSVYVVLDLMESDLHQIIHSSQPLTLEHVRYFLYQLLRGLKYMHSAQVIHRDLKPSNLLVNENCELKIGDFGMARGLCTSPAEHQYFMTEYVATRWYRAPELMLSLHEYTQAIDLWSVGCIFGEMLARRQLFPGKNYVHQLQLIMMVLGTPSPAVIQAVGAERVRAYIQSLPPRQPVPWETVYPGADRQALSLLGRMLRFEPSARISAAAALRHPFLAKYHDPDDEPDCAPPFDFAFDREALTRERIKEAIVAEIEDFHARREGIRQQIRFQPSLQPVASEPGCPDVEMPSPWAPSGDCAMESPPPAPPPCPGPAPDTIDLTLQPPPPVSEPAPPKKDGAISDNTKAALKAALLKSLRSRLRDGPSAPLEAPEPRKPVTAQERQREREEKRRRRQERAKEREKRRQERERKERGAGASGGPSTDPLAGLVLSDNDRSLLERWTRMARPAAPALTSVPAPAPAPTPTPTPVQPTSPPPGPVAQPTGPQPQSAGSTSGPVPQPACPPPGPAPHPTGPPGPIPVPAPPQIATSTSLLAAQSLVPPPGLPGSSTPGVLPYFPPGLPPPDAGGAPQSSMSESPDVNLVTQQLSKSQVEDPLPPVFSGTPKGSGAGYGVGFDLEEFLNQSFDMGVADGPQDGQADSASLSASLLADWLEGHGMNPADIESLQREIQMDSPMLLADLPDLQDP

With `CN1CCN(Cc2ccc(-c3cnc4[nH]cc(-c5ccc6[nH]ccc6c5)c4c3)cc2)CC1` [Compound 1, 3-(1H-Indol-5-yl)-5-(4-((4-methylpiperazin-1-yl)methyl)phenyl)-1H-pyrrolo[2,3-b]pyridine, reference compound], the remaining activity at 0.1 µM was 81.4% in assay [1]; 87.5% in assay [2] (ERK5/MAPK7 (CD)); 109% in assay [2] (ERK5/MAPK7); 44% in assay [3]; 24% in assay [4]; 90.8% in assay [5].
On to `CN1CCN(Cc2ccc(-c3cnc4[nH]cc(-c5cccc(Cl)c5)c4c3)cc2)CC1` [Compound 7ad, 3-(3-Chlorophenyl)-5-(4-((4-methylpiperazin-1-yl)methyl)phenyl)-1H-pyrrolo[2,3-b]pyridine], for which the remaining activity at 0.1 µM was found to be 97.3% in assay [1]; 93.9% in assay [2] (ERK5/MAPK7 (CD)); 109% in assay [2] (ERK5/MAPK7); 69.7% in assay [3]; 62.5% in assay [4]; 95.4% in assay [5].
For `CN1CCN(Cc2ccc(-c3cnc4[nH]cc(-c5cnn(Cc6ccccc6)c5)c4c3)cc2)CC1` [Compound 7ah, 3-(1-Benzyl-1H-pyrazol-4-yl)-5-(4-((4-methylpiperazin-1-yl)methyl)phenyl)-1H-pyrrolo[2,3-b]pyridine], the remaining activity at 0.1 µM in assay [1] is 48.4%; in assay [2] (ERK5/MAPK7 (CD)), 52.1%; in assay [2] (ERK5/MAPK7) it was 105%; in assay [3] it was 59.3%; in assay [4] it was 17.8%; in assay [5], 95.6%.
`Cc1nn(C)c(C)c1-c1c[nH]c2ncc(-c3ccc(CN4CCN(C)CC4)cc3)cc12` [Compound 7ai, 5-(4-((4-Methylpiperazin-1-yl)methyl)phenyl)-3-(1,3,5-trimethyl-1H-pyrazol-4-yl)-1H-pyrrolo[2,3-b]pyridine]: the remaining activity at 0.1 µM came to 95.5% in assay [1]; 86% in assay [2] (ERK5/MAPK7 (CD)); 101% in assay [2] (ERK5/MAPK7); 66.5% in assay [3]; 67.8% in assay [4]; 96.2% in assay [5].
Take `CN1CCN(Cc2ccc(-c3cnc4[nH]cc(-c5ccccc5Cl)c4c3)cc2)CC1` [Compound 7as, 3-(2-Chlorophenyl)-5-(4-((4-methylpiperazin-1-yl)methyl)phenyl)-1H-pyrrolo[2,3-b]pyridine]: the remaining activity at 0.1 µM in assay [1] came out at 81.1%; in assay [2] (ERK5/MAPK7 (CD)), 51.2%; in assay [2] (ERK5/MAPK7) it was 107%; in assay [3], 18.2%; in assay [4], 19.5%; in assay [5] it was 87.6%.
For `COc1ccccc1-c1c[nH]c2ncc(-c3ccc(CN4CCN(C)CC4)cc3)cc12` [Compound 7at, 3-(2-Methoxyphenyl)-5-(4-((4-methylpiperazin-1-yl)methyl)phenyl)-1H-pyrrolo[2,3-b]pyridine], the remaining activity at 0.1 µM in assay [1] stood at 90.2%; in assay [2] (ERK5/MAPK7 (CD)), 92.7%; in assay [2] (ERK5/MAPK7), 108%; in assay [3], 96.8%; in assay [4], 55.6%; in assay [5], 96.3%.
Take `CN1CCN(Cc2ccc(-c3cnc4[nH]cc(-c5ccc6c(c5)OCCO6)c4c3)cc2)CC1` [Compound 7d, 3-(2,3-Dihydrobenzo[b][1,4]dioxin-6-yl)-5-(4-((4-methylpiperazin-1-yl)methyl)phenyl)-1H-pyrrolo[2,3-b]pyridine]: the remaining activity at 0.1 µM in assay [1] stood at 74.8%; in assay [2] (ERK5/MAPK7 (CD)), 87.5%; in assay [2] (ERK5/MAPK7), 96.8%; in assay [3], 8.19%; in assay [4], 11.3%; in assay [5], 80.2%.
Turning to `CN1CCN(Cc2ccc(-c3cnc4[nH]cc(-c5ccncc5)c4c3)cc2)CC1` [Compound 7n, 5-(4-((4-Methylpiperazin-1-yl)methyl)phenyl)-3-(pyridin-4-yl)-1H-pyrrolo[2,3-b]pyridine], the remaining activity at 0.1 µM in assay [1] came out at 96.4%; in assay [2] (ERK5/MAPK7 (CD)), 98.9%; in assay [2] (ERK5/MAPK7), 90.6%; in assay [3], 63.6%; in assay [4], 57.7%; in assay [5] it was 95.4%.
`CN1CCN(Cc2ccc(-c3cnc4[nH]cc(-c5ccoc5)c4c3)cc2)CC1` [Compound 7w, 3-(Furan-3-yl)-5-(4-((4-methylpiperazin-1-yl)methyl)phenyl)-1H-pyrrolo[2,3-b]pyridine]: the remaining activity at 0.1 µM stood at 83.9% in assay [1]; 96.3% in assay [2] (ERK5/MAPK7 (CD)); 108% in assay [2] (ERK5/MAPK7); 90.4% in assay [3]; 62.4% in assay [4]; 96% in assay [5].
